Values quoted from earlier work, collected in patent US20100239681A1, “Controlled Release Particulates Containing Water-Insoluble Drug” (Biokey, Inc., priority 2009, published 2010).

Details: at 25° C.

Q: With `Oc1ccc(C=Cc2cc(O)cc(O)c2)cc1` [resveratrol] as the molecule, how does the water solubility read?
A: < 30 µg/mL
